# Test results published in patent publication US20130142831A1, “COMPOUNDS FOR INFLAMMATION AND IMMUNE-RELATED USES” (Synta Pharmaceuticals Corp., priority 2004, published 2013).
# Test system: IL-2 production
# Assay: Inhibition of IL-2 production in PHA-activated Jurkat cells
# Type: cell-based
# Settings: Homo sapiens, PHA 2.5 μg/mL, 20 hours
# Procedure: Jurkat cells were placed in a 96 well plate (0.5 million cells per well in 1% FBS medium) then test compounds of this invention were added at different concentrations. After 10 minutes, the cells were activated with PHA (final concentration 2.5 μg/mL) and incubated for 20 hours at 37° C. under CO2. The final volume was 200 μL. Following incubation, the cells were centrifuged and the supernatants collected and stored at −70° C. prior to assaying for IL-2 production. A commercial kit (IL-2 Eli-pair, Diaclone Research, Besancon, France) was used to detect production of IL-2, from which dose response curves were obtained. The IC50 value was calculated as the concentration at which. 50% of maximum IL-2 production after stimulation was inhibited versus a non-stimulation control.
IC50 (bins given in nM),IC50 (bins given with μM limit),Structure (SMILES)
< 100 nM,–,"COc1ccc2c(c1)nc(C(F)(F)F)n2-c1ccc(NC(=O)c2cc(F)cc(F)c2F)cc1 [Compound 2, 2,3,5-Trifluoro-N-[4-(2-trifluoromethyl-5-methoxy-benzoimidazol-1-yl)-phenyl]-benzamide]"
< 100 nM,–,"COc1ccc2c(c1)nc(C(F)(F)F)n2-c1ccc(NC(=O)c2ccc(F)c(F)c2F)cc1 [Compound 3, 2,3,4-Trifluoro-N-[4-(2-trifluoromethyl-5-methoxy-benzoimidazol-1-yl)-phenyl]-benzamide]"
< 100 nM,–,"COc1ccc2c(c1)nc(C(F)(F)F)n2-c1ccc(NC(=O)c2cccc(F)c2F)cc1 [Compound 4, 2,3-Difluoro-N-[4-(2-trifluoromethyl-5-methoxy-benzoimidazol-1-yl)-phenyl]-benzamide]"
< 100 nM,–,"COc1ccc2c(c1)nc(C(F)(F)F)n2-c1ccc(NC(=O)c2ccncc2C)cc1 [Compound 5, 3-Methyl-N-[4-(2-trifluoromethyl-5-methoxy-benzoimidazol-1-yl)-phenyl]-isonicotinamide]"
< 100 nM,–,"COc1ccc2c(c1)nc(C(F)(F)F)n2-c1ccc(NC(=O)c2ccncc2F)cc1 [Compound 6, 3-Fluoro-N-[4-(2-trifluoromethyl-5-methoxy-benzoimidazol-1-yl)-phenyl]-isonicotinamide]"
< 100 nM,–,"COc1ccc2c(c1)nc(C(F)(F)F)n2-c1ccc(NC(=O)c2cc(F)c(Cl)cc2Cl)cc1 [Compound 7, 2,4-Dichloro-5-fluoro-N-[4-(2-trifluoromethyl-5-methoxy-benzoimidazol-1-yl)-phenyl]-benzamide]"
< 100 nM,–,"O=C(Nc1ccc(-c2c(C(F)(F)F)cc3n2CCCC3)cc1)c1cccc(F)c1F [Compound 8, 2,3-Difluoro-N-[4-(2-trifluoromethyl-5,6,7,8-tetrahydroindolizin-3-yl)-phenyl]-benzamide]"
< 100 nM,–,"COc1ccc2c(c1)nc(C(F)(F)F)n2-c1ccc(NC(=O)c2cccc([N+](=O)[O-])c2)cc1 [Compound 10, 3-Nitro-N-[4-(2-trifluoromethyl-5-methoxy-benzoimidazol-1-yl)-phenyl]-benzamide]"
< 100 nM,–,"CSc1nc2ccccc2n1-c1ccc(NC(=O)c2cccc(F)c2F)cc1 [Compound 11, 2,3-Difluoro-N-[4-(2-methylsulfanyl-benzoimidazol-1-yl)-phenyl]-benzamide]"
< 100 nM,–,"Fc1cccc(C(=S)Nc2ccc(-n3c(C(F)(F)F)nc4ccccc43)cc2)c1F [Compound 12, 2,3-Difluoro-N-[4-(2-trifluoromethyl-benzoimidazol-1-yl)-phenyl]-thiobenzamide]"
< 100 nM,–,"O=C(Nc1ccc(-n2c(C(F)(F)F)nc3ccccc32)cc1)c1cccc(Cl)c1Cl [Compound 13, 2,3-Dichloro-N-[4-(2-trifluoromethyl-benzoimidazol-1-yl)-phenyl]-benzamide]"
< 100 nM,–,"COc1ccc2nc(C(F)(F)F)n(-c3ccc(NC(=O)c4cccc(F)c4F)cc3)c2c1 [Compound 14, 2,3-Difluoro-N-[4-(2-trifluoromethyl-6-methoxy-benzoimidazol-1-yl)-phenyl]-benzamide]"
100 to 500 nM,–,O=C(Nc1ccc(-n2c(C(F)(F)F)nc3ccccc32)cc1)c1cccc(Cl)c1F [Compound 15]
100 to 500 nM,–,"Nc1cc(F)c(F)c(C(=O)Nc2ccc(-n3c(C(F)(F)F)nc4ccccc43)cc2)c1F [Compound 16, 2,3,6-Trifluoro-5-amino-N-[4-(2-trifluoromethyl-benzoimidazol-1-yl)-phenyl]-benzamide]"
100 to 500 nM,–,"Cc1cc(NC(=O)c2cccc(F)c2F)ccc1-n1c(C(F)(F)F)nc2ccccc21 [Compound 17, 2,3-Difluoro-N-[3-methyl-4-(2-trifluoromethyl-benzoimidazol-1-yl)-phenyl]-benzamide]"
100 to 500 nM,–,"Cc1ccccc1C(=O)Nc1ccc(-c2c(C(F)(F)F)cc3n2CCCC3)cc1 [Compound 18, 2-Methyl-N-[4-(2-trifluoromethyl-5,6,7,8-tetrahydroindolizin-3-yl)-phenyl]-benzamide]"
100 to 500 nM,–,"N#Cc1ccc2nc(C(F)(F)F)n(-c3ccc(NC(=O)c4cccc(F)c4F)cc3)c2c1 [Compound 20, 2,3-Difluoro-N-[4-(2-trifluoromethyl-6-cyano-benzoimidazol-1-yl)-phenyl]-benzamide]"
100 to 500 nM,–,"Nc1cccc2c1nc(C(F)(F)F)n2-c1ccc(NC(=O)c2cccc(F)c2F)cc1 [Compound 21, 2,3-Difluoro-N-[4-(2-trifluoromethyl-4-amino-benzoimidazol-1-yl)-phenyl]-benzamide]"
100 to 500 nM,–,"CC(C)(C)OC(=O)Nc1cc(F)c(F)c(C(=O)Nc2ccc(-n3c(C(F)(F)F)nc4ccccc43)cc2)c1F [Compound 22, N-(3-{N-[4-(2-trifluoromethyl-benzoimidazol-1-yl)-phenyl]-carbamoyl}-2,4,5-trifluoro-phenyl)-carbamic acid t-butyl ester]"

IC50 (bins given in nM),IC50 (bins given with μM limit),Structure (SMILES)
100 to 500 nM,–,"O=C(Nc1ccc(-n2c(Cl)nc3ccccc32)cc1)c1cccc(F)c1F [Compound 23, 2,3-Difluoro-N-[4-(2-chloro-benzoimidazol-1-yl)-phenyl]-benzamide]"
100 to 500 nM,–,"Cc1nnsc1C(=O)Nc1ccc(-c2c(Cl)cc3n2CCCC3)cc1 [Compound 24, 4-Methyl-[1,2,3]thiadiazole-5-carboxylic acid {N-[4-(2-chloro-5,6,7,8-tetrahydroindolizin-3-yl)-phenyl]} amide]"
100 to 500 nM,–,"O=C(Nc1ccc(-n2c(C(F)(F)F)nc3ccccc32)cc1)c1cc(F)ccc1F [Compound 26, 2,5-Difluoro-N-[4-(2-trifluoromethyl-benzoimidazol-1-yl)-phenyl]-benzamide]"
100 to 500 nM,–,"O=C(Nc1ccc(-n2c(C(F)(F)F)nc3ccccc32)cc1)c1ccncc1F [Compound 27, 3-Fluoro-N-[4-(2-trifluoromethyl-benzoimidazol-1-yl)-phenyl]-isonicotinamide]"
100 to 500 nM,–,"O=C(Nc1ccc(-n2c(Br)nc3ccccc32)cc1)c1cccc(F)c1F [Compound 28, 2,3-Difluoro-N-[4-(2-bromo-benzoimidazol-1-yl)-phenyl]-benzamide]"
100 to 500 nM,–,"Cc1nnsc1C(=O)Nc1ccc(-n2c(C(F)(F)F)nc3ccccc32)cc1 [Compound 29, 4-Methyl-[1,2,3]thiadiazole-5-carboxylic acid {N-[4-(2-trifluoromethyl-benzoimidazol-1-yl)-phenyl]} amide]"
100 to 500 nM,–,"O=C(Nc1ccc(-n2c(C(F)(F)F)nc3ccccc32)c(C(F)(F)F)c1)c1cccc(F)c1F [Compound 30, 2,3-Difluoro-N-[3-trifluoromethyl-4-(2-trifluoromethyl-benzoimidazol-1-yl)-phenyl]-benzamide]"
100 to 500 nM,–,"CC(C)(C)OC(=O)Nc1ccc(C(=O)Nc2ccc(-n3c(C(F)(F)F)nc4ccccc43)cc2)c(F)c1F [Compound 31, N-(4-{N-[4-(2-trifluoromethyl-benzoimidazol-1-yl)-phenyl]-carbamoyl}-2,3-difluoro-phenyl)-carbamic acid t-butyl ester]"
100 to 500 nM,–,"COc1cc2nc(C(F)(F)F)n(-c3ccc(NC(=O)c4cccc(F)c4F)cc3)c2cc1OC [Compound 32, 2,3-Difluoro-N-[4-(2-trifluoromethyl-5,6-dimethoxy-benzoimidazol-1-yl)-phenyl]-benzamide]"
100 to 500 nM,–,"O=C(Nc1ccc(-n2c(I)nc3ccccc32)cc1)c1cccc(F)c1F [Compound 33, 2,3-Difluoro-N-[4-(2-iodo-benzoimidazol-1-yl)-phenyl]-benzamide]"
100 to 500 nM,–,"Fc1ccc(F)c(NC(=S)Nc2ccc(-n3c(C(F)(F)F)nc4ccccc43)nc2)c1 [Compound 34, N′-[2-(2-trifluoromethyl-benzoimidazol-1-yl)-pyrid-5-yl]-N-(2,5-difluoro-phenyl)-thiourea]"
100 to 500 nM,–,"CC(C)(C)c1ccc2c(c1)nc(C(F)(F)F)n2-c1ccc(NC(=O)c2cccc(F)c2F)cc1 [Compound 35, 2,3-Difluoro-N-[4-(2-trifluoromethyl-5-tert-butyl-benzoimidazol-1-yl)-phenyl]-benzamide]"
100 to 500 nM,–,"N#Cc1cc(NC(=O)c2cccc(F)c2F)ccc1-n1c(C(F)(F)F)nc2ccccc21 [Compound 37, 2,3-Difluoro-N-[3-cyano-4-(2-trifluoromethyl-benzoimidiazol-1-yl)-phenyl]-benzamide]"
100 to 500 nM,–,"O=C(Nc1ccc(-n2c(C(F)(F)F)nc3ccccc32)c(Cl)c1)c1cc(F)ccc1F [Compound 38, 2,5-Difluoro-N-[3-chloro-4-(2-trifluoromethyl-benzoimidazol-1-yl)-phenyl]-benzamide]"
100 to 500 nM,–,"Nc1ccc2c(c1)nc(C(F)(F)F)n2-c1ccc(NC(=O)c2cccc(F)c2F)cc1 [Compound 39, 2,3-Difluoro-N-[4-(2-trifluoromethyl-5-amino-benzoimidazol-1-yl)-phenyl]-benzamide]"
100 to 500 nM,–,"C[S+]([O-])c1nc2ccccc2n1-c1ccc(NC(=O)c2cccc(F)c2F)cc1 (centres unmarked) [Compound 40, 2,3-Difluoro-N-[4-(2-methanesulfinyl-benzoimidazol-1-yl)-phenyl]-benzamide]"
–,> 1000 nM,"CC(C)c1nc2ccccc2n1-c1ccc(NC(=O)c2cccc(F)c2F)cc1 [Compound 49, 2,3-Difluoro-N-[4-(2-isopropyl-benzoimidazol-1-yl)-phenyl]-benzamide]"
–,> 1000 nM,"O=C(Nc1ccc(-n2c(C(F)(F)F)nc3ccccc32)cc1)Nc1cc(F)ccc1F [Compound 50, N′-[4-(2-trifluoromethy-benzoimidazol-1-yl)-phenyl]-N-(2,5-difluoropheyl)-urea]"
–,> 1000 nM,"O=C(Nc1ccc(-n2c(C(F)(F)F)nc3ccccc32)cc1)c1cc[n+]([O-])cc1F [Compound 51, 1-Oxo-3-fluoro-N-[4-(2-trifluoromethyl-benzoimidazol-1-yl)-phenyl]-isonicotinamide]"
